Measurements taken from patent EP1954678B1, “NOVEL NK1 AND NK2 ANTAGONISTS” (Abbott Products GmbH, priority 2005, dated 2007).
Where two headings read alike, the source gives them in different places.

Columns and labels:
[1] = target: T1, human NK2 receptors (Homo sapiens, UniProt P21452); assay: Binding of the test substances to NK2 receptors in vitro ([3H]-SR 48968 displacement, CHO cell membranes); details: [3H]-SR 48968 as ligand; membranes of CHO cells expressing the human NK2 receptor; 90 min incubation; Ki calculated from IC50; read-out: pKi (NK2) (converted)
T1 construct: expressed in transfected cells; host or cells: CHO cells (membrane preparation)
T1 sequence (P21452 1-398): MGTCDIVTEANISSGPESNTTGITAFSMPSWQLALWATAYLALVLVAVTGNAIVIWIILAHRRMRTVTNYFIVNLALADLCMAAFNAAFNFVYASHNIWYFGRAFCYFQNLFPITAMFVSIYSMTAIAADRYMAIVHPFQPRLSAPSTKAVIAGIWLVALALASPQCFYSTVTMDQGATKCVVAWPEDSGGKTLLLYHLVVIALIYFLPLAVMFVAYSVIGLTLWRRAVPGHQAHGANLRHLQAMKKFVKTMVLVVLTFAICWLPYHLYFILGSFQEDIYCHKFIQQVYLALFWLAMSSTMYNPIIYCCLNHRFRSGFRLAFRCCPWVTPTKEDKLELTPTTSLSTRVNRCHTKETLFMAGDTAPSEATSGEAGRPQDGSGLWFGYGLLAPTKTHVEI
Description: The affinity of the test substances to human NK2 receptors was measured in vitro. The ability of the test substances to displace the selective NK2 receptor antagonist SR 48968 (= saredutant) used as reference ligand from its corresponding bond was determined.
The receptor binding studies were carried out with radioactively marked [^3H]-SR 48968 (from Amersham) as ligand. For the binding test, different samples of a membrane preparation of CHO cells (= egg cells of the Chinese hamster, Chinese hamster oocytes), which express the human NK2 receptor (for preparation, see N.P. Gerard et al., Journal of Biological Chemistry 265/33 (1990) 20455-20462), were incubated for 90 minutes (= min.) with a solution of the marked ligand, with the incubation mixtures containing no test substance or additions of different concentrations of test substance. Then in each case the membrane-bound ligands in the samples were separated from free ligands by filtration. The fraction remaining in the filter was washed several times with buffer solution, before its radioactivity was measured using a liquid scintillation counter. That concentration which effects half-maximum displacement of the bound reference ligand was determined as IC50 of the respective test substance. The inhibition constant (Ki value) of the test substance was calculated from the respective IC50 value, and was stated as the negative logarithmised value thereof (pKi).
If several measurements were performed, the average thereof was listed each time. The pKi value is a measurement of the affinity of the test substances to human NK2 receptors.

[2] = target: T2, human NK1 receptors (Homo sapiens, UniProt P25103); assay: Binding of the test substances to NK1 receptors in vitro ([3H]-Substance P displacement, CHO cell membranes); details: [3H]-Substance P as ligand; membranes of CHO cells expressing the human NK1 receptor; Ki calculated from IC50; read-out: pKi (NK1) (converted)
T2 construct: expressed in transfected cells; host or cells: CHO cells (membrane preparation)
Description: In The Netherlands, the affinity of the test substances to human NK1 receptors was measured in vitro.
The receptor binding studies were performed with [^3H]-Substance P as ligand. For the binding test, different samples of a membrane preparation of CHO cells (= egg cells of the Chinese hamster, Chinese hamster oocytes), which express the human NK1 receptor ("Accession Number" of the associated nucleic acid sequence = M74290; "Accession Number" of the associated protein sequence = P25103; cf. Takeda, Y.; Chou, K. B., Takeda, J.; Sachais, B.S. and Krause, J. E; Biochemical and Biophysical Research Communications, 179(3) (1991) 1232 - 1240), were incubated with a solution of the marked ligand, with the incubation mixtures containing no test substance or additions of different concentrations of test substance. Then, separation of bound and free ligands was performed in each of the samples with the aid of glass-fibre filtration. The fraction remaining in the filter was washed several times with buffer solution and then the radioactivity of the fraction remaining in the filter was measured using a beta scintillation counter.
For the compounds of Examples 1 to 14, that concentration which effects half maximum displacement of the bound ligand was determined as IC50 of the respective test substance. From this, the corresponding inhibition constant (Ki value) of the test substance was calculated, and was stated as the negative common logarithm of the Ki value (= pKi value). The pKi value is a measurement of the affinity of the test substances to human NK1 receptors.

[3] = target: T3, NK1 receptors (Cavia porcellus, UniProt P30547); assay: Functional NK1 antagonism on isolated guinea pig aorta ring preparations (Substance P induced relaxation); design: from tissue; host or cells: guinea pig aorta ring preparations; species or system Pirbright-White guinea pigs
Description: In The Netherlands, the action antagonistic to NK1 receptors of the test substances was measured in vitro on isolated ring preparations, kept in an oxygenated nutrient solution, of the aortas of Pirbright-White guinea pigs.
In order to measure the contraction of the vessel muscles, the preparations were fixed to a hook, joined by a thread to a force measuring apparatus and the contractions were recorded in each case on a plotter. The aorta preparations were tonicised with phenylephrine. […] The relaxations before and after the administration of the test substance were quantified in percent. The effective concentration of the half maximum inhibition of the relaxation of the tone (= EC50) was calculated. The negative common logarithm of the EC50 value (= pEC50) was given as characteristic variable. The pEC50 value is a measurement of the functional effectiveness of the test substances on NK1 receptors.

[4] = target: T4, NK2 receptors (Cavia porcellus, UniProt Q64077); assay: Functional NK2 antagonism on isolated guinea pig gall-bladder preparations (NKA induced contraction); design: from tissue; host or cells: guinea pig gall-bladder preparations; species or system Pirbright-White guinea pigs
T4 sequence (Q64077 1-402): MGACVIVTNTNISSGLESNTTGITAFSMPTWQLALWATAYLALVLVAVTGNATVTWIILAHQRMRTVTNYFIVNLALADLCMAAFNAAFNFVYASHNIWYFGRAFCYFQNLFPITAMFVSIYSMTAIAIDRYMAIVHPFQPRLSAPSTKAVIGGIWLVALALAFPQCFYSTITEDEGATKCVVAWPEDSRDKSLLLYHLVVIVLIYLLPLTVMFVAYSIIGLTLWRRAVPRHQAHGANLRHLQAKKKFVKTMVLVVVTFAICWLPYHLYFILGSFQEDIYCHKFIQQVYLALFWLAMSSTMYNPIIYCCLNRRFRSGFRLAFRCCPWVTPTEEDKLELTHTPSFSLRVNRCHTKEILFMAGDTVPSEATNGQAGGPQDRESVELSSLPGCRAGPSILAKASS
Description: The NK2 receptor-antagonising action of the test substances was determined on isolated gall-bladder preparations from Pirbright-White guinea pigs, held in an oxygen-saturated nutrient solution. To this end, the preparations were fastened on one hand in the nutrient solution to organ holders and on the other hand on a force meter by a thread.
The concentration of the test substances was increased iteratively in the subsequent experiments as a function of the result in logarithmic whole or half steps, until at least one concentration above or below 50% inhibition of contraction was determined (up to at most 10^-5 mol/l). For each concentration, the average value of inhibition of contraction was calculated from 2 to 4 preparations. In each case, the concentration of half-maximum inhibition (IC50) per test substance was calculated as characteristic variable.

[5] = target: T5, cloned human NK2 receptors (Homo sapiens, UniProt P21452); assay: Ca2+ measurements using FLIPR for NK2 activity in CHO cells; assay type: cell-based; details: NKA 10^-7 M as agonist; compound applied 7 min before; pA2 calculated from IC50
T5 construct: expressed in transfected cells
T5 sequence (P21452 1-398): T1 sequence (P21452 1-398)
Source text: (§1) The NK receptor is coupled to Gq.
(§2) All steps were done under sterile conditions. […] The results are summarized in table 5: Table 5: pA2 data for NK1 and NK2: […]

[6] = target: T3, NK1 receptors; assay: NK-1-receptor-antagonistic effectiveness in vivo in anaesthetised guinea pigs (NKA test stimulus, early hypotension); design: from tissue; host or cells: whole anaesthetised guinea pig (in vivo); species or system Pirbright-White guinea pigs; details: guinea pig, iv, read-out: ED50 iv after 1 min (cumulative) NK1 (early hypotension)
Source text: (§3) The NK-1- and NK-2-antagonistic activities of the test substances were investigated in anaesthetised guinea pigs in each case after intravenous (= i.v.) and oral (= p.o.) administration in vivo. With the present test model it is possible to detect both NK-2-antagonistic effects in three different organ systems (respiratory tracts, colon and circulation) and NK-1-antagonistic effects (rapid drop in blood pressure) in an animal simultaneously.
(§4) Pirbright-White guinea pigs of a body weight of 500-700 g were anaesthetised with ketamine/xylazine (67/13 mg/kg subcutaneously, initial dose, further doses administered as required). The animals were provided with an intravenous catheter in order to administer the substance and an intra-arterial catheter to measure the blood pressure. The animals were artificially ventilated via a tracheal cannula and the respiratory pressure was recorded by means of a pressure transducer. A balloon was introduced into the distal colon of the animals for manometric recording of colon motility by means of a pressure transducer. Blood pressure, heart rate, respiratory pressure and colonic pressure were measured continuously for each animal and plotted on a recorder and by means of a digital data-processing system. […] The second phase of delayed hypotension (= phase of maximum hypotension after 2-5 min.) on the other hand is mediated via NK-2 receptors, since they can be blocked by specific NK-2 receptor antagonists. […] Table 6: NK-1- and NK-2-receptor-antagonistic effective-ness of the test substances of Formula I on guinea pigs in vivo after intravenous administration
(§5) These ED50 values obtained from cumulative dose effect curves are plotted in table 6.
(§6) The antagonistic effects of the test substances were then determined as "area under the curve" ("AUC") over the investigation period after administration of the test substances (1 - 180 min after administration) and the ED50 values after oral administration obtained therefrom were plotted in table 7. Table 7: NK-1- and NK-2-receptor-antagonistic effective-ness of the test substances of Formula I on guinea pigs in vivo after oral administration

[7] = target: T4, NK2 receptors; assay: NK-2-receptor-antagonistic effectiveness in vivo in anaesthetised guinea pigs (NKA test stimulus: late hypotension, bronchoconstriction, colonic pressure); design: from tissue; host or cells: whole anaesthetised guinea pig (in vivo); species or system Pirbright-White guinea pigs; details: guinea pig, iv
Source text: as §3, §4, §5, §6

[8] = target: T6, cloned human NK1 receptors (Homo sapiens, UniProt P25103); assay: Ca2+ measurements using FLIPR for NK1 activity in CHO cells; assay type: cell-based; details: substance P 10^-8 M as agonist; compound applied 7 min before; pA2 calculated from IC50
T6 construct: expressed in transfected cells
Source text: as §1, §2

[9] = read-out: ED50 iv after 1 min (cumulative) NK2 (broncho-constriction)
[10] = read-out: ED50 iv after 1 min (cumulative) NK2 (colonic motility)
[11] = read-out: ED50 iv after 1 min (cumulative) NK2 (late hypotension)

T2 sequence (P25103 whole entry): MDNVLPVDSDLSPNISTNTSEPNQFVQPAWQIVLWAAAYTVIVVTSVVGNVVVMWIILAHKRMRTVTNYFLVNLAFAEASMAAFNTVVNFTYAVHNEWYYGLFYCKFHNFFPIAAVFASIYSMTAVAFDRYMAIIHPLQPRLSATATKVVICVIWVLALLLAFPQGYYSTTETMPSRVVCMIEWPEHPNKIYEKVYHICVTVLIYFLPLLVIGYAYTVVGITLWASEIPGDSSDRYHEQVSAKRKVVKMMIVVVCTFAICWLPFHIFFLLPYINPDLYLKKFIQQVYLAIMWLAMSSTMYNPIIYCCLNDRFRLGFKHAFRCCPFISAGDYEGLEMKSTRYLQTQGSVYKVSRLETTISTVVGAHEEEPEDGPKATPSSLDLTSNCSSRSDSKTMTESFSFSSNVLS
T3 sequence (P30547 whole entry): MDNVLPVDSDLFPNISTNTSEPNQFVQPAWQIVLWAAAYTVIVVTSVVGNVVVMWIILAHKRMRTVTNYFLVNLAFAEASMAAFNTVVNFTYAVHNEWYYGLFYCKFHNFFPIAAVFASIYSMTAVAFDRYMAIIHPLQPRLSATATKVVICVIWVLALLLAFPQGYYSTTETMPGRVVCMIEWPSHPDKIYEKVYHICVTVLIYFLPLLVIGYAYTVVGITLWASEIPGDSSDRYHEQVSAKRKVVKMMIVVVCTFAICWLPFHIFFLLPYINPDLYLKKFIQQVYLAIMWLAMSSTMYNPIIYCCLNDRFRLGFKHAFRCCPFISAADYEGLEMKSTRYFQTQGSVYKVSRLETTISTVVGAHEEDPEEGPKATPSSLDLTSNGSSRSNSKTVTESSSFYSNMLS
T6 sequence (P25103 whole entry): as the sequence (P25103 whole entry) above

Ki [1] [nM] | Ki [2] [nM] | EC50 [3] [nM] | IC50 [4] [nM] | Kb [5] [nM] | ED50 [6] [µmol/kg] | ED50 [7, 9] [µmol/kg] | ED50 [7, 10] [µmol/kg] | ED50 [7, 11] [µmol/kg] | Kb [8] [nM] | SMILES
50.1 | 1.26 | 0.1 | 31.6 |  |  |  |  |  |  | CN(C[C@@H](CCN1CCN([C@@H](c2ccsc2)[C@H](O)[C@@H](O)[C@H](O)CO)CC1)c1ccc(Cl)c(Cl)c1)C(=O)c1cc(C#N)cc2ccccc12 [Compound 5, 3-cyano-N-[(2S)-2-(3,4-dichlorophenyl)-4-{4-[(1S,2S,3R,4R)-2,3,4,5-tetrahydroxy-1-(3-thienyl)pentyl]piperazin-1-yl}butyl]-N-methyl-1-naphthamide]
31.6 | 7.94 |  |  | 1.26 | 0.07 | 1.13 | 0.135 | 0.803 | 0.631 | CN(C[C@@H](CCN1CCN([C@@H](c2ccsc2)[C@H](O)CO)CC1)c1ccc(Cl)c(Cl)c1)C(=O)c1cc(C#N)cc2ccccc12 [Compound 8, 3-cyano-N-[(2S)-2-(3,4-dichlorophenyl)-4-{4-[(1S,2S)-2,3-dihydroxy-1-(3-thienyl)propyl]piperazin-1-yl}butyl]-N-methyl-1-naphthamide]
63.1 | 10 |  |  |  | 0.099 | 0.943 | 0.287 | 1.04 | 3.16 | CN(C[C@@H](CCN1CCN([C@@H](c2cccs2)[C@H](O)CO)CC1)c1ccc(Cl)c(Cl)c1)C(=O)c1cc(C#N)cc2ccccc12 [Compound 9, 3-cyano-N-[(2S)-2-(3,4-dichlorophenyl)-4-{4-[(1R,2S)-2,3-dihydroxy-1-(2-thienyl)propyl]piperazin-1-yl}butyl]-N-methyl-1-naphthamide]
100 | 10 |  |  |  | 0.041 | 0.045 | 0.109 | 0.04 |  | CN(C[C@@H](CCN1CCN([C@@H](c2ccsc2)[C@H]2COC(=O)O2)CC1)c1ccc(Cl)c(Cl)c1)C(=O)c1cc(C#N)cc2ccccc12 [Compound 10, 3-cyano-N-[(2S)-2-(3,4-dichlorophenyl)-4-{4-[(S)-[(4S)-2-oxo-1,3-dioxolan-4-yl](3-thienyl)methyl]piperazin-1-yl}butyl]-N-methyl-1-naphthamide]
 |  |  |  |  | 0.029 | 0.725 | 0.961 | 1.17 |  | CN(C[C@@H](CCN1CCN([C@@H](c2ccccc2)[C@H](O)CO)CC1)c1ccc(Cl)c(Cl)c1)C(=O)c1cc(C#N)cc2ccccc12 [Compound 23, 3-cyano-N-[(2S)-2-(3,4-dichlorophenyl)-4-{4-[(1S,2S)-2,3-dihydroxy-1-phenylpropyl]piperazin-1-yl)butyl]-N-methyl-1-naphthamide]
